Data: ChEMBL document CHEMBL1201862, “PubChem BioAssay data set” (2004)
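These data come from cells grown in 96-well plates and exposed to compound for 48 hours at five concentrations. Abbreviation: GI50, concentration required for 50% inhibition of growth.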 Active and inactive are the calls of the source. No stated cut-off is given here; in the data, active = GI50 up to about 1.1 µM and inactive = higher.

How the values were obtained:
Experiment in all cases: DTP human tumour cell line panel, 48 h
[1] = system: HCT-15
[2] = system: EKVX
[3] = system: LOX IMVI
[4] = system: COLO 205
[5] = system: MCF7
[6] = system: SK-MEL-28
[7] = system: SF-539
[8] = system: SNB-19
[9] = system: A549
[10] = system: Hs-578T
[11] = system: SF-295
[12] = system: OVCAR-4
[13] = system: CAKI-1
[14] = system: UO-31
[15] = system: OVCAR-8
[16] = system: Malme-3M
[17] = system: SF-268
[18] = system: TK-10
[19] = system: SN12C
[20] = system: MDA-MB-231

Row | SMILES | GI50 [1] | GI50 [2] | GI50 [3] | GI50 [4] | GI50 [5] | GI50 [6] | GI50 [7] | GI50 [8] | GI50 [9] | GI50 [10] | GI50 [11] | GI50 [12] | GI50 [13] | GI50 [14] | GI50 [15] | GI50 [16] | GI50 [17] | GI50 [18] | GI50 [19] | GI50 [20]
1 | COc1ccc(C(=O)c2nc3ccccc3nc2N2CCN(c3ccccc3)CC2)cc1OC | > 100 µM | > 100 µM (inactive) | > 100 µM (inactive) | > 100 µM (inactive) | 39.1 µM (inactive) | > 100 µM (inactive) | > 100 µM (inactive) | > 100 µM (inactive) | > 100 µM (inactive) | > 100 µM (inactive) | > 100 µM (inactive) | > 100 µM (inactive) | > 100 µM (inactive) | > 100 µM (inactive) | > 100 µM (inactive) | > 100 µM (inactive) | > 100 µM (inactive) | > 100 µM (inactive) | – | –
2 | COC1CC(n2ccc(=O)[nH]c2=O)OC1CO (configuration not stated) | > 100 µM | > 100 µM (inactive) | > 100 µM (inactive) | > 100 µM (inactive) | < 0.01 µM (active) | > 100 µM (inactive) | > 100 µM (inactive) | > 100 µM (inactive) | > 100 µM (inactive) | – | > 100 µM (inactive) | > 100 µM (inactive) | > 100 µM (inactive) | > 100 µM (inactive) | > 100 µM (inactive) | > 100 µM (inactive) | > 100 µM (inactive) | – | > 100 µM (inactive) | > 100 µM (inactive)
3 | COC(=O)[C@@]12CCCC(=O)[C@@H]1[C@H]1CCCC[C@H]12 | > 100 µM | > 100 µM (inactive) | > 100 µM (inactive) | > 100 µM (inactive) | > 100 µM (inactive) | > 100 µM (inactive) | > 100 µM (inactive) | > 100 µM (inactive) | > 100 µM (inactive) | – | > 100 µM (inactive) | > 100 µM (inactive) | > 100 µM (inactive) | > 100 µM (inactive) | > 100 µM (inactive) | > 100 µM (inactive) | > 100 µM (inactive) | > 100 µM (inactive) | > 100 µM (inactive) | > 100 µM (inactive)
4 | N#C/C(=C\c1cccc(Br)c1)c1nc2ccccc2c(=O)[nH]1 | > 100 µM | > 100 µM (inactive) | > 100 µM (inactive) | > 100 µM (inactive) | > 100 µM (inactive) | > 100 µM (inactive) | 47.9 µM (inactive) | 43.7 µM (inactive) | > 100 µM (inactive) | – | 53.5 µM (inactive) | > 100 µM (inactive) | > 100 µM (inactive) | > 100 µM (inactive) | > 100 µM (inactive) | > 100 µM (inactive) | > 100 µM (inactive) | 42.1 µM (inactive) | > 100 µM (inactive) | 41.7 µM (inactive)
5 | O=C(Cn1cc(-c2ccccc2)nn1)NC1CCCCC1 | > 100 µM | > 100 µM (inactive) | > 100 µM (inactive) | > 100 µM (inactive) | > 100 µM (inactive) | > 100 µM (inactive) | > 100 µM (inactive) | > 100 µM (inactive) | > 100 µM (inactive) | – | > 100 µM (inactive) | > 100 µM (inactive) | > 100 µM (inactive) | – | > 100 µM (inactive) | > 100 µM (inactive) | > 100 µM (inactive) | > 100 µM (inactive) | > 100 µM (inactive) | > 100 µM (inactive)
6 | c1coc(CNc2[nH]cnc3nncc2-3)c1 | > 100 µM | > 100 µM (inactive) | > 100 µM (inactive) | > 100 µM (inactive) | – | > 100 µM (inactive) | > 100 µM (inactive) | > 100 µM (inactive) | > 100 µM (inactive) | – | > 100 µM (inactive) | > 100 µM (inactive) | > 100 µM (inactive) | 70.3 µM (inactive) | > 100 µM (inactive) | > 100 µM (inactive) | > 100 µM (inactive) | > 100 µM (inactive) | > 100 µM (inactive) | –
7 | CC1(C)OC(=O)C(=Cc2ccc([N+](=O)[O-])s2)C(=O)O1 | 3.18 µM | 17.1 µM (inactive) | 16.7 µM (inactive) | 16.6 µM (inactive) | 12.7 µM (inactive) | 18.9 µM (inactive) | 15.4 µM (inactive) | 16.5 µM (inactive) | 90.8 µM (inactive) | – | 15.7 µM (inactive) | – | 15.6 µM (inactive) | 10.8 µM (inactive) | 11.4 µM (inactive) | 19.2 µM (inactive) | 14.7 µM (inactive) | 17.3 µM (inactive) | 16.1 µM (inactive) | 18.9 µM (inactive)
8 | N#C/C(=C1\SC(/N=N/c2ccc(Cl)cc2)C(=O)N1c1ccccc1)c1nc2ccccc2[nH]1 (configuration not stated) | 65.8 µM | 47.3 µM (inactive) | 15 µM (inactive) | 25.2 µM (inactive) | – | 36 µM (inactive) | 32.4 µM (inactive) | 30.1 µM (inactive) | 29.7 µM (inactive) | – | 18.5 µM (inactive) | 23 µM (inactive) | 48.4 µM (inactive) | 19.8 µM (inactive) | 54.2 µM (inactive) | 28.4 µM (inactive) | > 100 µM (inactive) | 24.9 µM (inactive) | 96.8 µM (inactive) | –
9 | C/C(=N\Nc1nc2ccccc2n1C)c1cnccn1 | 0.0438 µM | 0.0424 µM (active) | 0.129 µM (active) | < 0.0139 µM (active) | 0.0246 µM (active) | 0.565 µM (active) | 0.692 µM (active) | 2.73 µM (inactive) | 0.218 µM (active) | – | 0.367 µM (active) | 0.0504 µM (active) | 0.0348 µM (active) | 0.0407 µM (active) | 0.0615 µM (active) | 0.065 µM (active) | 0.0726 µM (active) | 0.0703 µM (active) | 0.0395 µM (active) | 0.044 µM (active)
10 | OCC[N+]12CCCN1CCC2 | > 100 µM | > 100 µM (inactive) | > 100 µM (inactive) | > 100 µM (inactive) | – | > 100 µM (inactive) | > 100 µM (inactive) | > 100 µM (inactive) | > 100 µM (inactive) | – | > 100 µM (inactive) | > 100 µM (inactive) | > 100 µM (inactive) | > 100 µM (inactive) | > 100 µM (inactive) | > 100 µM (inactive) | > 100 µM (inactive) | > 100 µM (inactive) | > 100 µM (inactive) | –
11 | CC(C)(C)OP(=O)(OC(C)(C)C)C(O)c1ccc(/C=C(\C#N)C(N)=O)cc1 (configuration not stated) | > 100 µM | > 100 µM (inactive) | > 100 µM (inactive) | > 100 µM (inactive) | – | > 100 µM (inactive) | > 100 µM (inactive) | > 100 µM (inactive) | > 100 µM (inactive) | – | > 100 µM (inactive) | > 100 µM (inactive) | > 100 µM (inactive) | > 100 µM (inactive) | > 100 µM (inactive) | > 100 µM (inactive) | > 100 µM (inactive) | > 100 µM (inactive) | > 100 µM (inactive) | –
